Measurements as given in PubChem BioAssay (NCI).
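A five-concentration, 48-hour dose response in 96-well plates underlies each endpoint, interpolated linearly between surrounding concentrations. GI50 is the concentration that inhibits growth by half. TGI: concentration producing complete growth inhibition.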

How the values were obtained:
Experiment in all cases: NCI tumour cell line growth inhibition, 48 h
[1] = system: NCI-H460 lung
[2] = system: PC-3 prostate
[3] = system: SF-268 CNS
[4] = system: HCT-116 colon
[5] = system: OVCAR-8 ovarian
[6] = system: MCF7 breast
[7] = system: M14 melanoma
[8] = system: UO-31 renal
[9] = system: MDA-MB-231 breast
[10] = system: NCI-H226 lung

| SMILES | TGI [1] [µM] | TGI [2] [µM] | TGI [3] [µM] | TGI [4] [µM] | TGI [5] [µM] | TGI [6] [µM] | TGI [7] [µM] | TGI [8] [µM] | TGI [9] [µM] | GI50 [1] [µM] | GI50 [2] [µM] | GI50 [3] [µM] | GI50 [5] [µM] | GI50 [10] [µM] | TGI [10] [µM] | GI50 [6] [µM] | GI50 [7] [µM] | GI50 [8] [µM] | GI50 [9] [µM] | GI50 [4] [µM] |
| --- | --- | --- | --- | --- | --- | --- | --- | --- | --- | --- | --- | --- | --- | --- | --- | --- | --- | --- | --- | --- |
| Cc1c[n+](=O)c2ccccc2n1[O-] | > 100 | > 100 | > 100 | > 100 | > 100 | > 100 | > 100 | > 100 | > 100 | – | – | – | – | – | – | – | – | – | – | – |
| OC(Cc1ccncc1)C(Cl)(Cl)Cl (stereo not given) | > 100 | > 100 | > 100 | – | > 100 | > 100 | > 100 | > 100 | > 100 | > 100 | 21.8 | > 100 | > 100 | > 100 | > 100 | > 100 | > 100 | > 100 | > 100 | – |
| CCOC(=O)c1c(C)nc2c(c1N)CC(=O)N2Cc1ccc(OC)cc1 | – | > 100 | > 100 | – | > 100 | > 100 | > 100 | > 100 | > 100 | – | > 100 | 4.29 | 5.42 | 7.36 | > 100 | > 100 | > 100 | > 100 | 3.77 | – |
| CN(O)C(=O)SCC(NC(=O)CCC(N)C(=O)O)C(=O)NCC(=O)O (stereo not given) | > 2000 | – | > 2000 | > 2000 | > 2000 | – | > 2000 | > 2000 | – | > 2 | – | > 2 | > 2000 | > 2000 | > 2000 | – | > 2000 | > 2000 | – | > 2000 |
| NS(=O)(=O)c1ccc(-n2nc(-c3ccc(Cl)cc3)cc2-c2cc(O)ccc2O)cc1 | > 100 | 23.8 | 26.2 | – | 58.6 | > 100 | 17.4 | > 100 | 13.9 | 7.81 | 8.37 | 10.5 | 13.3 | 10.1 | 24.5 | 5.97 | 5.82 | 26.5 | 3.32 | – |
| O=C(O)CCCSC(=O)Nc1ccc(N=Nc2ccccc2)cc1 | > 100 | – | > 100 | > 100 | > 100 | – | > 100 | > 100 | – | – | – | – | – | – | > 100 | – | – | – | – | – |
| CCOC(=O)/C(C=Nc1ccc(-c2nc3ccccc3[nH]2)cc1)=C(/C)O | > 50 | > 50 | 34.5 | 14.5 | 17.7 | > 50 | 32 | 31.1 | 31.3 | 12.1 | 27.2 | 11.7 | 8.78 | – | – | 11.7 | 12.7 | 10.3 | 9.65 | 7.82 |
| O=C(COc1ccc(Cl)cc1)N1N=C(c2ccc(Cl)cc2)CC1(O)c1ccccc1 (stereo not given) | 35.7 | – | > 100 | 26.3 | 30 | – | 34.5 | > 100 | – | – | – | – | – | – | 48.1 | – | – | – | – | – |
| CCN(CC)c1c(C(=O)/C=C/c2ccc(Cl)cc2)c(-c2ccccc2)nn(C)c1=O | 3.67 | – | 3.4 | 3.11 | 3.1 | – | 4.01 | 3.12 | – | – | – | – | – | – | 4.4 | – | – | – | – | – |
| Cc1cccc(/C=C/c2c(C(=O)/C=C/c3ccccc3)c(C)nc3ccccc23)c1 | 2.94 | – | – | – | – | 4.22 | – | 2.51 | – | 1.3 | – | – | – | 1.73 | 3.82 | 0.565 | – | 1.26 | – | – |
| CC(C)Cn1cnc2c(SCc3ccc(Cl)cc3Cl)nc(N)nc21 | 35.4 | > 100 | > 100 | > 100 | 93.3 | 47.8 | > 100 | > 100 | > 100 | – | – | – | – | – | – | – | – | – | – | – |
| O=C(NCCCCNc1cccccc1=O)OCc1ccccc1 | > 100 | – | > 100 | > 100 | > 100 | – | > 100 | > 100 | – | – | – | – | – | – | > 100 | – | – | – | – | – |
| CCc1ccccc1NC(=O)C1=C(C)NC(C)=C(C(=O)Nc2ccccc2CC)C1c1ccccc1Cl | > 100 | – | > 100 | > 100 | > 100 | – | > 100 | > 100 | – | – | – | – | – | – | > 100 | – | – | – | – | – |
| COC1=C(N)C(=O)c2nc(C)ccc2C1=O | 4.11 | – | 4.17 | 3.99 | 12.4 | – | 3.33 | 4 | – | – | – | – | – | – | 2.33 | – | – | – | – | – |
| C[C@H](NC(=O)[C@@H](C)N)[C@H](Oc1ccc2c(cnn2-c2ccc(F)cc2)c1)c1ccc2c(c1)OCCO2 | 3.15 | – | 10.7 | 3.73 | 14 | 3.71 | 3.3 | 3.27 | 4.69 | 1.56 | – | 2.48 | 3.25 | 2.64 | 15.8 | 1.43 | 1.68 | 1.39 | 1.93 | 1.87 |
